These results are taken from US20260097004A1, “PHARMACEUTICAL COMPOSITION FOR TREATING MAST CELL-MEDIATED INFLAMMATORY DISEASES” (priority 2022, published 2026).

For one data set, the target named is T1, MrgA1 (Mus musculus, UniProt Q91WW5).
T1 sequence (Q91WW5 1-304): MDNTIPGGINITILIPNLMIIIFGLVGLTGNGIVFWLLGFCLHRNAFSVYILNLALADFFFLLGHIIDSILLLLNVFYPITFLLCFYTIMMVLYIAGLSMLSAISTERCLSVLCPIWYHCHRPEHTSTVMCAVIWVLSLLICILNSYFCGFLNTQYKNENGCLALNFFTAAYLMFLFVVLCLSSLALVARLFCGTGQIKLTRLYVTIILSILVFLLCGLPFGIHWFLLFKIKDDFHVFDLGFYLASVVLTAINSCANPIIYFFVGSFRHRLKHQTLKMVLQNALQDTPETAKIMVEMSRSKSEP
The experiment in a line: Calcium ion flow when substance P acts on MrgA1. The class given is cell-based. Conditions: substance P 10 μM acted on MrgA1; cells with vs without Atovaquone; FIG. 2. How it is done: (§1) An incubation buffer was composed of: 0.5 μl of Fluo-3, 2 μl of Pluronic F-127 and 997.5 μl of CIB (calcium imaging buffer: 125 mM NaCl, 3 mM KCl, 2.5 mM CaCl2, 0.6 mM MgCl2, 10 mM HEPES, 20 mM glucose, 1.2 mM NaHCO3 and 20 mM sucrose, and pH=7.4). Different concentrations (0, 1, 10, 100 nM and 1 μM) of Atovaquone were prepared in the incubation buffer, and an incubation buffer solution without Atovaquone was used as a negative control. LAD2 cells were washed twice with CIB, and then a desired incubation buffer solution was added. After incubation for 30 min, the cells were washed twice with CIB, and then inoculated into a 96-well plate for calcium imaging. For calcium imaging, the cells were magnified 200× and a photo was obtained per second under blue light. After a substance was injected, the cells were confirmed as being responsive if [Ca^2+] rose by at least 50%.
(§2) FIG. 2 is a dynamic observation graph showing a calcium ion flow change when a substance P acted on different receptors, i.e., a schematic representation of the substance P acting on MrgA1, MrgX2 and NKIR (5 nM acted on NKIR, 50 nM acted on MrgX2 and 10 μM acted on MrgA1). This image set was photographed every 5 s from left to right for 120 s. In each group of graphs, a column represented cells with Atovaquone, the next column represented cells without Atovaquone.

The conditions of data set [1]: cited from earlier work.
The subject of the next data set is LAD2 mast cells. The experiment in a line: β-hexosaminidase assay of mast cell degranulation stimulated by SP. The format is cell-based. Particulars: SP stimulating experiment, FIG. 1. How it is done: An experimental method using a β-hexosaminidase assay comprises the following steps: • 1. a PNAG/HEPES buffer/0.1% Triton-100/glycine solution was prepared at a normal temperature; • 2. LAD2 cell was taken out from an incubator at 37° C. and cell count was read, and then an appropriate amount of cell suspension was taken according to experimental cell requirements (estimated based on 5000-10000/well); • 3. the LAD2 cell suspension was centrifuged for 5 min on a centrifuge at 4° C. at […], and then supernatant was discarded; • 4. cells were evenly mixed in the solution after HEPES buffer was added; • 5. the cell suspension was transferred to a 96-well plate, with 80 ul per well; • 6. a to-be-tested drug Atovaquone was added to a corresponding position according to experiment design, the positions of a positive control SP (neuropeptide substance P), a negative control QWF (MRGPRX2 receptor antagonist) and a blank control were reserved, and each drug was administrated for three repetitions; • 7. the cells were co-incubated with the drug for 30 min; • 8. […]
Detection of m Absorbance
• 12. the degranulation percentage of mast cells was calculated.
According to a formula: degranulation percentage-2×absorbance of supernatant plate/(absorbance of supernatant plate+[…]absorbance of cell lysis plate)×100%

The next data set deals with LAD2 cells. Description: Intracellular calcium ion flow experiment (calcium imaging, Fluo-3). Conditions: Atovaquone at different concentrations (0, 1, 10, 100 nM and 1 μM), incubation 30 min; FIG. 3. The class given is cell-based. How it is done:
as §1
(In general: Calcium assays in cells follow changes in intracellular calcium, usually with a dye or a luminescent sensor.)

Another data set has as its target NKIR (Homo sapiens, UniProt P25103). The experiment in a line: Calcium ion flow when substance P acts on NKIR. The class given is cell-based. Particulars: substance P 5 nM acted on NKIR; cells with vs without Atovaquone; FIG. 2. The procedure:
as §1, §2

NKIR, sequence (P25103 whole entry): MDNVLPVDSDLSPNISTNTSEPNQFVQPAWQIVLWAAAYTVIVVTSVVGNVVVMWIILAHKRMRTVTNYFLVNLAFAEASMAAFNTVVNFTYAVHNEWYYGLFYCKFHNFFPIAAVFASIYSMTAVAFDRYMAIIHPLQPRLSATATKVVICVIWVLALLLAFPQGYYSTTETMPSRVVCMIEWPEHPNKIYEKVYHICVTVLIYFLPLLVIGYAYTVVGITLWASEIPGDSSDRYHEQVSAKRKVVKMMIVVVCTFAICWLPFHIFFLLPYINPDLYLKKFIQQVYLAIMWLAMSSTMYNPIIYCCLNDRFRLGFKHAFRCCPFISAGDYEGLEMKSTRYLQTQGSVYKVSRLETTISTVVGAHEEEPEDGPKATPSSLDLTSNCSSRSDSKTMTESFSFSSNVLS

As to `O=C1C(O)=C([C@H]2CC[C@H](c3ccc(Cl)cc3)CC2)C(=O)c2ccccc21` [Atovaquone], at MrgA1, the “effect on MrgA1 mediated calcium ion flow” value is listed as “inferior to that on MrgX2”. Also, the drug dependence entry in data set [1] (after long-term use) is given as “no significant drug dependence phenomenon”. Also, the side effects entry in data set [1] (users in a population) was “low side effect characteristics”. The “inhibition of LAD2 mast cell degranulation compared with QWF” value in the data set on LAD2 mast cells is “far superior to QWF”. In the data set with LAD2 mast cells (cells co-incubated with drug 30 min, then SP 30 min), the “degranulation of LAD2 mast cells (degranulation percentage)” value is “obviously improved”. For the same compound, the calcium ion flow entry with LAD2 cells was “reduction in calcium ion flow”. Further, at NKIR, the “effect on NKIR mediated calcium ion flow” value is listed as “inferior to that on MrgX2”.
